Laboratory results taken from patent US11117890B2, “Substituted isoindole allosteric EGFR inhibitors” (Hoffmann-La Roche Inc., priority 2017, dated 2021).
Counter-ions that a name gives are not always drawn.

Molecular target: T1, Phospho-EGFR in H1975 cell line (Homo sapiens, UniProt P00533, L858R/T790M)
T1 construct: H1975 cell line was obtained from American Type Culture Collection; host or cells: H1975
Assay: HTRF Phospo EGFR Assay (Cellular)
Type: cell-based
Details: H1975 cells; 6 hours compound incubation in starving medium; HTRF anti-Phospho-EGFR readout
Protocol: HTRF Phospo EGFR Assay (Cellular)
H1975 cell line was obtained from American Type Culture Collection (Manassas, Va., USA). Cells were maintained at 37° C., 5% CO2 in complete Media RPMI 1640 without phenol red containing 0.3 mg/ml glutamine, 100 IU/ml penicillin, and […] (Gibco) supplemented with 10% fetal bovine serum (FBS) (Gibco). Compounds were diluted into starving medium RPMI 1640 Media without phenol red containing 0.3 mg/ml glutamine, 100 IU/ml penicillin, and […] (Gibco).
Cells were cultured overnight in a 384-well white plate (8000 cells/well) using 8 μl of complete medium/well. Cells were washed two times with 20 μl of starving medium. Media was removed by tapping plates on tissue and subsequently 8 μl of fresh starving medium/well was added. Then 4 μl/well of the 3×compound solution, containing a half-log dilution series of the compound or DMSO in starving medium, were added to the cells. After 6 hours at 37° C., 5% CO2 cells were lysed by adding to the compound mix 4 μl/well of the supplemented lysis buffer, followed by incubation for 30 min at room temperature with shaking. Lysates were stored at −20° C. overnight. The following day plates were thawed and 2 μl of anti-Phospho-EGFR Cryptate and 2 μl of anti-Phospho-EGFR-d2 antibody solutions prepared in the detection buffer were added. The plates were then incubated for at least 4 h at room temperature before reading the fluorescence emission at 620 and 665 nm using PHERAstar FX plate reader (BMG Labtech).

T1 sequence (P00533 25-1210 T790M/L858R): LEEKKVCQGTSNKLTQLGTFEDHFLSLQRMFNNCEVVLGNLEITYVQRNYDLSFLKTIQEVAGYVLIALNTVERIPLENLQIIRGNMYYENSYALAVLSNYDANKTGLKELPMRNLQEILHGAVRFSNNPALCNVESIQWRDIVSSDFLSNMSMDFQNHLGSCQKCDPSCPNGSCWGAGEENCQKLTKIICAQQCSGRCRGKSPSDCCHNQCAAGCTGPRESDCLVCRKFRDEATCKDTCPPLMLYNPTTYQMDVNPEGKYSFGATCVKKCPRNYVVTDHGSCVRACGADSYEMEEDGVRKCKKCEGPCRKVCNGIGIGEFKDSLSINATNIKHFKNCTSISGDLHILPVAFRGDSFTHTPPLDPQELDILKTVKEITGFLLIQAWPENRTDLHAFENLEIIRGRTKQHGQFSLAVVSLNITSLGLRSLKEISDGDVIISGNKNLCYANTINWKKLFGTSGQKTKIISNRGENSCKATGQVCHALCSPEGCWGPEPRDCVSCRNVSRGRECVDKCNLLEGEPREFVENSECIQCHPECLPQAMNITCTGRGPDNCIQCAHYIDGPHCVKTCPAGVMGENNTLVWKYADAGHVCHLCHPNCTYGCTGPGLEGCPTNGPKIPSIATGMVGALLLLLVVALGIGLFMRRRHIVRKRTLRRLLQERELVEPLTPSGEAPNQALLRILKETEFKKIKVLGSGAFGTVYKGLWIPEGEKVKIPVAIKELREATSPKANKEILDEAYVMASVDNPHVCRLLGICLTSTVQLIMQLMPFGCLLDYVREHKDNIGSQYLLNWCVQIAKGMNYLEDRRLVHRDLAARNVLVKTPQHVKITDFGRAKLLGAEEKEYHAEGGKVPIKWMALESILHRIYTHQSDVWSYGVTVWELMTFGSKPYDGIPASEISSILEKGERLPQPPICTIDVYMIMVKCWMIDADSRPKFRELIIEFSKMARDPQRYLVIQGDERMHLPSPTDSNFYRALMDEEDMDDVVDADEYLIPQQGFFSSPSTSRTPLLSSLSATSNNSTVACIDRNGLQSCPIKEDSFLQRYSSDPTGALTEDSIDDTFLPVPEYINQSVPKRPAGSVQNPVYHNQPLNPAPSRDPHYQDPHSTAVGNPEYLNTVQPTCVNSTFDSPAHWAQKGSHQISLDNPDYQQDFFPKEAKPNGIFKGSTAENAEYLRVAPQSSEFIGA

Row | Structure (SMILES) | IC50 [nM]
1 | O=C(Nc1nccs1)C(c1cc(F)ccc1O)N1Cc2ccc(C#Cc3ccnc(Cl)c3)cc2C1=O (racemic) [Example 19, (2RS)-2-[6-[2-(2-Chloro-4-pyridyl)ethynyl]-1-oxo-isoindolin-2-yl]-2-(5-fluoro-2-hydroxy-phenyl)-N-thiazol-2-yl-acetamide] | 3
2 | Nc1ccc(C#Cc2ccc3c(c2)C(=O)N(C(C(=O)Nc2ccccn2)c2cc(F)ccc2O)C3)cn1 (racemic) [Example 20, (2RS)-2-[6-[2-(6-Amino-3-pyridyl)ethynyl]-1-oxo-isoindolin-2-yl]-2-(5-fluoro-2-hydroxy-phenyl)-N-(2-pyridyl)acetamide] | 4
3 | Nc1ccc(C#Cc2ccc3c(c2)C(=O)N(C(C(=O)Nc2nccs2)c2ccccc2)C3)cn1 (racemic) [Example 3, (2RS)-2-[6-[2-(6-Amino-3-pyridyl)ethynyl]-1-oxo-isoindolin-2-yl]-2-phenyl-N-thiazol-2-yl-acetamide] | 32
4 | O=C(Nc1nccs1)C(c1ccccc1)N1Cc2ccc(C#Cc3ccc(C(=O)N4CCOCC4)nc3)cc2C1=O (racemic) [Example 14, (2RS)-2-[6-[2-[6-(Morpholine-4-carbonyl)-3-pyridyl]ethynyl]-1-oxo-isoindolin-2-yl]-2-phenyl-N-thiazol-2-yl-acetamide] | 51
5 | Nc1ncc(C#Cc2ccc3c(c2)C(=O)N(C(C(=O)Nc2nccs2)c2cc(F)ccc2O)C3)cn1 (racemic) [Example 18, (2RS)-2-[6-[2-(2-Aminopyrimidin-5-yl)ethynyl]-1-oxo-isoindolin-2-yl]-2-(5-fluoro-2-hydroxy-phenyl)-N-thiazol-2-yl-acetamide] | 2
6 | Cc1c(C#Cc2ccc(N)nc2)ccc2c1C(=O)N(C(C(=O)Nc1ccccn1)c1cc(F)ccc1O)C2 (racemic) [Example 22, (2RS)-2-[6-[2-(6-Amino-3-pyridyl)ethynyl]-7-methyl1-oxo-isoindolin-2-yl]-2-(5-fluoro-2-hydroxy-phenyl)-N-(2-pyridyl)acetamide] | 3
7 | Nc1ccc(C#Cc2ccc3c(c2)C(=O)N(C(C(=O)Nc2nccs2)c2cc(F)ccc2F)C3)cn1 (racemic) [Example 5, (2RS)-2-[6-[2-(6-Amino-3-pyridyl)ethynyl]-1-oxo-isoindolin-2-yl]-2-(2,5-difluorophenyl)-N-thiazol-2-yl-acetamide] | 7
8 | Nc1ccc(C#Cc2ccc3c(c2)C(=O)N(C(C(=O)Nc2nccs2)c2cc(Cl)ccc2O)C3)cn1 (racemic) [Example 23, (2RS)-2-[6-[2-(6-Amino-3-pyridyl)ethynyl]-1-oxo-isoindolin-2-yl]-2-(5-chloro-2-hydroxy-phenyl)-N-thiazol-2-yl-acetamide] | 4
9 | O=C(Nc1nccs1)C(c1cc(F)ccc1O)N1Cc2ccc(C#Cc3cccnc3)c(F)c2C1=O (racemic) [Example 26, (2RS)-2-(5-Fluoro-2-hydroxy-phenyl)-2-[7-fluoro-1-oxo-6-[2-(3-pyridyl)ethynyl]isoindolin-2-yl]-N-thiazol-2-yl-acetamide] | 2
10 | Nc1ccc(C#Cc2ccc3c(c2)C(=O)N(C(C(=O)Nc2nccs2)c2cc(F)ccc2O)C3)cn1 (racemic) [Example 15, (2RS)-2-[6-[2-(6-Amino-3-pyridyl)ethynyl]-1-oxo-isoindolin-2-yl]-2-(5-fluoro-2-hydroxy-phenyl)-N-thiazol-2-yl-acetamide] | 1
11 | O=C(Nc1nccs1)C(c1ccccc1)N1Cc2ccc(C#Cc3cccnc3)cc2C1=O (racemic) [Example 2, (2RS)-2-[1-oxo-6-[2-(3-pyridyl)ethynyl]isoindolin-2-yl]-2-phenyl-N-thiazol-2-yl-acetamide] | 42
12 | O=C(Nc1nccs1)C(c1cc(F)ccc1O)N1Cc2ccc(C#Cc3ccc(CN4CCOCC4)cc3)cc2C1=O (racemic) [Example 27, (2RS)-2-(5-Fluoro-2-hydroxy-phenyl)-2-[6-[2-[4-(morpholinomethyl)phenyl]ethynyl]-1-oxo-isoindolin-2-yl]-N-thiazol-2-yl-acetamide] | 5
13 | Nc1ccc(C#Cc2ccc3c(c2)C(=O)N(C(C(=O)Nc2nccs2)c2ncccc2O)C3)cn1 (racemic) [Example 25, (2RS)-2-[6-[2-(6-Amino-3-pyridyl)ethynyl]-1-oxo-isoindolin-2-yl]-2-(3-hydroxy-2-pyridyl)-N-thiazol-2-yl-acetamide trifluoroacetate] | 2
14 | Nc1ccc(C#Cc2ccc3c(c2)C(=O)N(C(C(=O)Nc2nccs2)c2ccccc2O)C3)cn1 (racemic) [Example 24, (2RS)-2-[6-[2-(6-Amino-3-pyridyl)ethynyl]-1-oxo-isoindolin-2-yl]-2-(2-hydroxyphenyl)-N-thiazol-2-yl-acetamide] | 4
15 | O=C(Nc1nccs1)C(c1cc(F)ccc1O)N1Cc2ccc(C#Cc3ccc(CN4CCC(O)CC4)cc3)cc2C1=O (racemic) [Example 28, (2RS)-2-(5-Fluoro-2-hydroxy-phenyl)-2-[6-[2-[4-1(4-hydroxy-1-piperidyl)methyl]phenyllethynyl]-1-oxo-isoindolin-2-yl]-N-thiazol-2-yl-acetamide] | 7

Next, values leading:

Row | IC50 [nM] | Structure (SMILES)
16 | 35 | NCc1ccc(C#Cc2ccc3c(c2)C(=O)N(C(C(=O)Nc2nccs2)c2ccccc2)C3)cc1 (racemic) [Example 6, (2RS)-2-[6-[2-[4-(Aminomethyl)phenyl]ethynyl]-1-oxo-isoindolin-2-yl]-2-phenyl-N-thiazol-2-yl-acetamide]
17 | 16 | CNC(=O)c1ccc(C#Cc2ccc3c(c2)C(=O)N(C(C(=O)Nc2nccs2)c2ccccc2)C3)cn1 (racemic) [Example 9, N-Methyl-5-[2-[3-oxo-2-[(1RS)-2-oxo-1-phenyl-2-(thiazol-2-ylamino)ethyl]isoindolin-5-yl]ethynyl]pyridine-2-carboxamide]
18 | 7 | CN1CCN(Cc2ccc(C#Cc3ccc4c(c3)C(=O)N(C(C(=O)Nc3nccs3)c3cc(F)ccc3O)C4)cc2)CC1 (racemic) [Example 30, (2RS)-2-(5-Fluoro-2-hydroxy-phenyl)-2-[6-[2-[4-1(4-methylpiperazin-1-yl)methyl]phenyl]ethynyl]-1-oxo-isoindolin-2-yll-N-thiazol-2-yl-acetamide]
19 | 61 | O=C(Nc1nccs1)C(c1ccccc1)N1Cc2ccc(C#Cc3ccc(CN4CCOCC4)cc3)cc2C1=O (racemic) [Example 11, (2RS)-2-[6-[2-[4-(Morpholinomethyl)phenyl]ethynyl]-1-oxo-isoindolin-2-yl]-2-phenyl-N-thiazol-2-yl-acetamide]
20 | 10 | CC(=O)Nc1ccc(C#Cc2ccc3c(c2)C(=O)N(C(C(=O)Nc2nccs2)c2ccccc2)C3)cn1 (racemic) [Example 7, (2RS)-2-[6-[2-(6-Acetamido-3-pyridyl)ethynyl]-1-oxo-isoindolin-2-yl]-2-phenyl-N-thiazol-2-yl-acetamide]
21 | 43 | O=C(Nc1nccs1)C(c1ccccc1)N1Cc2ccc(C#Cc3ccc(CN4CCNCC4)cc3)cc2C1=O (racemic) [Example 10, (2RS)-2-[1-Oxo-6-[2-[4-(piperazin-1-ylmethyl)phenyl]ethynyl]isoindolin-2-yl]-2-phenyl-N-thiazol-2-yl-acetamide hydrochloride]
22 | 14 | CC(=O)N1CCN(Cc2ccc(C#Cc3ccc4c(c3)C(=O)N(C(C(=O)Nc3nccs3)c3ccccc3)C4)cc2)CC1 (racemic) [Example 12, (2RS)-2-[6-[2-[4-[(4-acetylpiperazin-1-yl)methyl]phenyl]ethynyl]-1-oxo-isoindolin-2-yl]-2-phenyl-N-thiazol-2-1-acetamide]
